Converted amounts (≈) assume the structure as drawn. Like-named read-outs stand apart in the source and are kept apart here.
How the values were obtained:
[1] = In vitro metabolism: disappearance of parent compound in monkey liver microsomes; type: in vitro ADME; settings: 5 uM compound, 30 minutes 37° C.
Procedure, shortened: (§1)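 Microsomes from human, rat (male, female), dog and monkey liver incubated with 5 uM compound, 0.5 mg/ml protein and 2 mM NADPH in 50 mM K phosphate, pH 7.4, for 30 min at 37° C. Reaction stopped with acetonitrile; parent compound remaining measured by LC-MS.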

Rat plasma % remain = type: in vitro ADME
rat GnRH receptor = molecular target: T1, rat GnRH receptor (Rattus norvegicus, UniProt P30969); assay: Radioligand binding: inhibition of 125I-GnRH-A binding to rat GnRH receptor (rat pituitary membranes); settings: read-out: Ki (nM), Inhibition Binding of 125I-GnRH-A to GnRH Receptors
T1 construct: or rat pituitaries (Pel Freez Biologicals, Rogers, Ark.) were homogenized; tissue Pel Freez Biologicals; host or cells: rat pituitaries (membrane preparation)
T1 sequence (P30969 1-327): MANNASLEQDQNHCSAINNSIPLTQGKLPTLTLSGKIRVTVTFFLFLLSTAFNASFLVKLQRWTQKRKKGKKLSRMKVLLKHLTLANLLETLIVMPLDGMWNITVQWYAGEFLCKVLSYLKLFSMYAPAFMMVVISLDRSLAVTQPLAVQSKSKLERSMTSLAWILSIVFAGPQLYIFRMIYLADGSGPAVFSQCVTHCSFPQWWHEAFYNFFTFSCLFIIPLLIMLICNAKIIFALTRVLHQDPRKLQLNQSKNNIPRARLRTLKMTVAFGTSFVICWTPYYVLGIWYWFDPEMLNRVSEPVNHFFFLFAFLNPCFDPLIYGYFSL
Procedure, shortened: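 Membranes from rat pituitaries, or HEK 293 cells stably expressing mouse or human receptor, incubated 1 hour at room temperature with ~0.04-0.06 nM radioligand (HEPES pH 7.4, EDTA, MgCl2, BSA) and competitor at 0.1-10,000 nM. Bound ligand collected by GF/C filtration and counted; Ki derived from IC50 by Cheng-Prusoff.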

[2] = Solubility at pH2 and pH6; type: physicochemical
[3] = In vitro metabolism: disappearance of parent compound in human liver microsomes; type: in vitro ADME; settings: 5 uM compound, 0.5 mg/ml protein, 2 mM NADPH, 30 minutes 37° C.
Procedure, shortened: as §1

mouse GnRH receptors = molecular target: T2, mouse GnRH receptors (Mus musculus, UniProt Q01776); assay: Radioligand binding: inhibition of 125I-GnRH-A binding to mouse GnRH receptor membranes; settings: HEK 293 cell membranes
T2 construct: expressed in transfected cells; host or cells: HEK 293 cells, stably transfected; membranes
T2 sequence (Q01776 1-327): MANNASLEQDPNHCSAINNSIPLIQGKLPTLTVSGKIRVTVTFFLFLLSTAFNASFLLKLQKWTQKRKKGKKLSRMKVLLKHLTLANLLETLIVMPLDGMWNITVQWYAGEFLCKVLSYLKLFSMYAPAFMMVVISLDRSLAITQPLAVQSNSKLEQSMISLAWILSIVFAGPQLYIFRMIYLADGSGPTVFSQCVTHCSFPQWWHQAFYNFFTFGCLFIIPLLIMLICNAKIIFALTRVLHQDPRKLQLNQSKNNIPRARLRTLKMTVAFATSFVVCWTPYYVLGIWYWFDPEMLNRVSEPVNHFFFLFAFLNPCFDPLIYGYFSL
Experimental: HEK 293 cells stably transfected with mouse or human GnRH receptors as described above were grown in Dulbecco's high-glucose, modified Eagle's medium (DMEM) supplemented with 0.2% G418, 10% fetal bovine serum (FBS) and 100 U/mL penicillin/streptomycin. GH3 cells stably transfected with the rat GnRH receptor (GGH3) were provided by Dr. William Chin (Harvard Medical School, Boston, Mass.). These cells have been extensively characterized previously (Kaiser et al., 1997). The cells were grown in low glucose DMEM containing: 100U/mL penicillin/streptomycin, 0.6% G418 and 10% heat-inactivated FBS.
HEK 293 cells containing mouse or human receptors, or rat pituitaries (Pel Freez Biologicals, Rogers, Ark.) were homogenized in buffer A containing: 50 mM Tris (pH 7.4), 0.32 M sucrose, 2 mM EGTA, 1 mM PMSF, 5 μg/ml aprotinen, 5 μg/ml Pepstatin A, and 1 μg/ml leupeptin. Homogenized cells were centrifuged at 4° C. at 20,000×g for 25 minutes, re-suspended in buffer A and re-centrifuged at 4° C. at 20,000×g for an additional 25 minutes. Total membrane protein was determined with a BCA kit (Pierce, Rockford, Ill.). Membranes were stored at −70° C. at a final membrane protein concentration of approximately 5 mg/ml.
The radioiodinated agonist analog of GnRH, [des-Gly^10,D-Ala^6]GnRH ethylamide (^125I-GnRH-A), was used as the radioligand. […] The reaction mixture was vortexed and incubated for 1 minute at room temperature. After one minute, the mixture was vortexed and allowed to incubate for an additional minute. 2 ml of 0.5 M acetic acid/1% BSA was added to the reaction tube and the mixture was added to a C18 Sep-Pak cartridge. The cartridge was washed with subsequent washes of 5 ml H2O and 5 ml 0.5 M acetic acid and then eluted with 5×1 ml of 60% CH3CN/40% 0.5 M acetic acid. The eluate was diluted with 3× volume of HPLC buffer A (0.1% TFA in H2O) and loaded onto a C18 column. The iodinated product was eluted over 20-25 min with a gradient of 25-100% CH3CN containing 0.1% TFA. The radioactive fractions (750 μl/fraction) were collected into clean polypropylene tubes containing 100 μl of 10% BSA. Fractions were assessed for biological activity by radioligand binding. Specific activity of the radioligand was approximately 2200 Ci/mmol.
Membranes were diluted to 0.01-0.5 mg/ml (depending upon the species of receptor) with assay buffer containing 50 mM HEPES (pH 7.4), 1 mM EDTA, 2.5 mM MgCl2, and 0.1% BSA. Membranes (diluted to utilize similar receptor numbers between assays) were incubated with approximately 0.04-0.06 nM ^125I-GnRH-A in the presence or absence of competing agents (0.1-10,000 nM) in a total volume of 200 μl in 96-well polypropylene plates for 1 hour at room temperature. Assays were stopped by rapid filtration onto 96-well GF/C filters soaked in 0.1% polyethylenimine (PEI) utilizing a Packard 96-well cell harvester. Filters were washed three times with ice-cold PBS (50 mM NaPO4, 0.9% NaCl, 2 mM MgCl2, and 0.02% NaN3, pH 7.4). 35 μl of scintillation cocktail was added to each filter well and filters were counted on a Packard Topcount. Control dose-response curves were generated to GnRH (0.1 nM-100 nM) in each competition binding experiment. Ki values were calculated from IC50 values according to Cheng et al., Biochemical Pharmacol. 22: 3099-3108, 1973. [formula]

[4] = In vitro metabolism: disappearance of parent compound in dog liver microsomes; type: in vitro ADME; settings: 5 uM compound, 30 minutes 37° C.
Procedure, shortened: as §1

[5] = In vitro metabolism: disappearance of parent compound in rat liver microsomes (male, female); type: in vitro ADME; settings: 5 uM compound, 30 minutes 37° C.; for Fem. Rat (FR) % rem. 30′: female rat liver microsomes; for Male Rat (MR) % rem. 30′: male rat liver microsomes
Procedure, shortened: as §1

[6] = pH 6, aqueous buffer, pH6, read-out: Solubility μg/ml pH6

Monkey % rem. [1] [%]	Rat plasma % remain (Rat plasma % remain) [%]	Ki (rat GnRH receptor) [nM]	solubility [2, 6] [µg/mL]	Human % rem. 30′ [3] [%]	Ki (mouse GnRH receptors) [nM]	Dog % rem. 30′ [4] [%]	Fem. Rat (FR) % rem. 30′ [5] [%]	Male Rat (MR) % rem. 30′ [5] [%]	solubility ([2]; pH 2, simulated gastric fluid, pH2, read-out: Solubility μg/ml pH2) [µg/mL]	SMILES
12	83	11	0.4 (≈ 0.79 µM)	40	3.4	4	35	11		COc1nc(N(C)C)nc(OC)c1NC(=O)c1ccc(Cc2cc3c(cc2C)C(C)(C)CCC3(C)C)o1 [Example B2, 5-(3,5,5,8,8-Pentamethyl-5,6,7,8-tetrahydro-naphthalen-2-ylmethyl)-furan-2-carboxylic Acid (dimethylamino-dimethoxy-pyrimidin-5-yl)-amide]
0	100	0.7	1 (≈ 2.03 µM)	35	0.42	0	72	1		COc1nc(OC)c(NC(=O)c2ccc(Cc3cc4c(cc3C)C(C)(C)CCC4(C)C)o2)c(OC)n1 [Example C1, 5-(3,5,5,8,8-Pentamethyl-5,6,7,8-tetrahydro-naphthalen-2-ylmethyl)-furan-2-carboxylic Acid (2,4,6-trimethoxy-pyrimidin-5-yl)-amide]
7	100	5.4	> 15	83		49	75	44		COc1nc(OCCO)nc(OC)c1NC(=O)c1ccc(Cc2cc3c(cc2C)C(C)(C)OC3(C)C)o1 [Example A3, 5-(1,1,3,3,6-Pentamethyl-1,3-dihydro-isobenzofuran-5-ylmethyl)-furan-2-carboxylic acid [2-(2-hydroxy-ethoxy)-4,6-dimethoxy-pyrimidin-5-yl]-amide]
0	100	3.8	> 12	60	4.2	22	74	11	> 12	COc1nc(OC)c(NC(=O)c2ccc(Cc3cc4c(cc3C)C(C)(C)OC4(C)C)o2)c(OC)n1 [Example A1, 5-(1,1,3,3,6-Pentamethyl-1,3-dihydro-isobenzofuran-5-ylmethyl)-furan-2-carboxylic Acid (2,4,6-trimethoxy-pyrimidin-5-yl)-amide]

Source: patent publication US6833372B2, “Non-peptide GnRH agents, Pharmaceutical compositions, and methods for their use” (Pfizer, Inc., priority 2002, dated 2004)
